We go through one molecule from US12331029B2, “Orexin 1 receptor antagonists” (NXERA PHARMA UK LIMITED, priority 2018, dated 2025).

In assay [1] the target is T1, Human OX2 receptor (Homo sapiens, UniProt O43614).
T1 sequence (O43614 1-444): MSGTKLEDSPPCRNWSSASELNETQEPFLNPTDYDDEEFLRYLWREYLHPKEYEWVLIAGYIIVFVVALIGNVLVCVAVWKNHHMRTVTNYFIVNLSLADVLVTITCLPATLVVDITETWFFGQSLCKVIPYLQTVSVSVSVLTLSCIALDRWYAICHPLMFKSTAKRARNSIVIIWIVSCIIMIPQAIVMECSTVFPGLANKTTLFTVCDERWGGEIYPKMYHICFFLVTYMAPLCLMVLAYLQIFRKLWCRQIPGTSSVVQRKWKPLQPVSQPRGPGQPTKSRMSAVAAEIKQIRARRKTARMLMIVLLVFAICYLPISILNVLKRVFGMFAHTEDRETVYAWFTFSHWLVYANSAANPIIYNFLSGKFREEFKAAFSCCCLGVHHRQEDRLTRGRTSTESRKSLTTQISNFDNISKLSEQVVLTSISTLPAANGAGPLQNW
As to the kind of experiment: [3H]-radioligand binding assay, human OX2 receptor membranes.
Experimental: (§3) Human OX1 or OX2 receptor were cloned into Invitrogen's (ThermoFisher Scientific, UK) Bac-to-Bac Baculovirus Expression System. P0 baculovirus was generated by transfecting SF9 cells with bacmid DNA using Cellfectin® II transfection reagent (ThermoFisher Scientific, UK, Catalog number 10362-100). Following P0 generation P1 virus was then generated ready for large scale infection and membrane preparation. SF21 cells were grown in expression medium ESF921 (Expression Systems, USA, catalog number 96-001-01) supplemented with 10% heat-inactivated FBS and 1% Pen/Strep and were infected at a cell density of 2.5×10^6 cells/mL and a multiplicity of infection of 1.0 for both human OX1R and OX2R. Incubation was carried out at over 48 h in a shaking incubator set at 27° C. The cell culture was then centrifuged at 2,500 rcf for 10 min at 4° C. The pellets were resuspended in cold PBS supplemented with Roche's Complete EDTA-free protease inhibitor cocktail tablets (Roche Applied Sciences, catalog number 05056489001), 1 mM PMSF and 1 mM EDTA. The resuspended cell paste was then centrifuged at 3,273 rcf for 12 min at 4° C. The supernatant was discarded and the pellet frozen at −80° C. The cell pellet from a 4 L culture was resuspended in buffer containing 50 mM HEPES pH 7.5, 150 mM NaCl, 8 Roche EDTA-Free protease inhibitor cocktail tablets and 1 mM PMSF. The suspension was left stirring at rt for 1 h and then homogenised for 90 s at 9,500 rpm using a VDI 25 (VWR, USA) homogeniser. The cells were then lysed using a Microfluidiser processor M-110L Pneumatic (Microfluidics, USA) at 60 PSI and membranes collected by ultracentrifugation at 204.7 k×g for 1 h. The supernatant was discarded and the pellet was resuspended and homogenised in 90 s at 9,500 rpm in 50 mL (25 mL for each 2 L culture) of buffer containing 50 mM Hepes pH 7.5, 150 mM NaCl, 3 Roche EDTA-free protease inhibitor cocktail tablets and 1 mM PMSF. The resulting membranes were then stored at −80° C.
(§4) [^3H]-radioligand binding assay. After thawing, membrane homogenates were re-suspended in the binding buffer (8.5 mM HEPES, pH 7.4, 1.3 mM CaCl2, 1.2 mM MgSO4, 118 mM NaCl, 4.7 mM KCl, 4 mM NaHCO3, 1.2 mM KH2PO4, 11 mM glucose) to a final assay concentration of 6.4 μg (OX1) or 1.4 μg (OX2) protein per well. Saturation isotherms were determined by the addition of various concentrations (0-30 nM) of [^3H]-4-(2,6-difluoro-4-methoxybenzyl)-2-(5,6-dimethoxypyridin-3-yl)-2H-1,2,4-benzothiadiazin-3(4H)-one 1,1-dioxide (Christopher et al, MedChemComm., 2015, 6, 947-955) in a total reaction volume of 250 μL for 90 min at rt. At the end of the incubation, membranes were filtered onto a 96-well GF/B filter pre-incubated with 0.5% polyethylenimine, with a Tomtec cell harvester and washed 5 times with 0.5 mL distilled water. Non-specific binding (NSB) was measured in the presence of 3.33 μM [4-(5-chloro-1,3-benzoxazol-2-yl)-7-methyl-1,4-diazepan-1-yl][5-methyl-2-(2H-1,2,3-triazol-2-yl)phenyl]methanone (Wertz et al, Angew. Chem. Int. Ed., 2011, 50, 11511-11515). Radioactivity on the filter was counted (1 min) on a Microbeta radiometric plate counter (Perkin Elmer) after addition of 50 μL of scintillation fluid (LabLogic: Part #SG-BXX-14). […] IC50 values were derived from the inhibition curve and the equilibrium dissociation constant (Ki) values were calculated using the Cheng-Prusoff equation.

In assay [2] the target is T2, Human OX1 receptor (Homo sapiens, UniProt O43613).
T2 sequence (O43613 1-425): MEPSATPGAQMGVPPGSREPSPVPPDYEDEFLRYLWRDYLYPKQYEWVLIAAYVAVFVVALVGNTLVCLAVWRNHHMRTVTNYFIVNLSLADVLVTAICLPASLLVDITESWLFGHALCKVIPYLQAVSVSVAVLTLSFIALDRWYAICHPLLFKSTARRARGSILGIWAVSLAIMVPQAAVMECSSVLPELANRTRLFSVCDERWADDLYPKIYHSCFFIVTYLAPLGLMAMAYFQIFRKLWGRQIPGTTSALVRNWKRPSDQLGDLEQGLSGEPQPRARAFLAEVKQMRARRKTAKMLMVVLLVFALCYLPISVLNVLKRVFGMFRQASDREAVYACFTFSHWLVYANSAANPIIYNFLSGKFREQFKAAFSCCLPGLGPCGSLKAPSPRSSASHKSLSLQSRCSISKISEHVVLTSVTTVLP
Briefly: [3H]-radioligand binding assay, human OX1 receptor membranes.
Experimental: as §3, §4

The target in assay [3] is T2, Human OX1 receptor. Briefly: IPone accumulation assay, CHO cells expressing human OX1 receptor. The format is cell-based. Conditions: antagonism of orexin A (EC80) induced inositol phosphate turnover, read-out: fpKb average OX1 (converted). On the procedure:
(§1) Stable cell lines for the human OX1R and OX2R receptors were generated through the transfection of CHO cells using the transfection reagent Genejuice (Novagen number 70967) and cDNA coding for either the human OX1R or OX2R. Cells were cultured in Sigma Nutrient Mixture F-12 Ham media (catalog number N6658) supplemented with 10% heat-inactivated FBS. Forty-eight hours after transfection, cells were harvested and placed under geneticin selection by culturing in Sigma Nutrient Mixture F-12 Ham media supplemented with 10% heat-inactivated FBS and geneticin (ThermoFisher Catalog number: 10131035). Selection of the final stable clone for each receptor was made on the basis of receptor expression, assay signal to noise and robustness though increasing passage. Selected clones for the human OX1R and OX2R were then frozen down into liquid nitrogen using Cell Freezing Medium-DMSO (Sigma-Aldrich catalog number: C6164).
(§2) IPone accumulation assay. A CHO cell line stably expressing either human OX1 or OX2 receptor was used with the IPone HTRF assay kit (CisBio: Part #62IPAPEJ) to measure receptor activation. The assay was optimised to measure the ability (potency; fpKb) of antagonists to reduce agonist (orexin A)-induced inositol phosphate turnover. Briefly, cells were plated onto half area 96-well white walled plates at a density of 12,500 cells/well. Sixteen hours post-plating cell growth media was replaced with antagonist concentration-response curve diluted in stimulation buffer (supplied with the kit). Cells were incubated in a humidified incubator (37° C.) for 30 min before an EC80 challenge concentration (˜20 nM (OX1) and 40 nM (OX2)) of orexin A (Tocris catalogue number 1455). After 30 min stimulation in a humidified incubator (37° C.) the assay was terminated by the addition of detection mixture as per manufacturer's instructions. The concentration of compound which reduced orexin-A stimulated turnover of inositol phosphates by 50% (IC50) was calculated by fitting to a four parameter sigmoidal dose response curve. The IC50 values were converted to fpKB values using the orexin A pEC50 value estimated on each plate as well as the challenge concentration interpolated from the orexin A control curve.

Assay [4] has as its target T1, Human OX2 receptor. As to the kind of experiment: IPone accumulation assay, CHO cells expressing human OX2 receptor. The format is cell-based. Conditions: antagonism of orexin A (EC80) induced inositol phosphate turnover, read-out: fpKb average OX2. On the procedure:
as §1
as §2, with “Cells were incubated in a humidified incubator (37° C.) for 30 min before an EC80 challenge concentration (˜20 nM (OX1) and 40 nM (OX2)) of orexin A (Tocris catalogue number 1455).” left out

Each structure is given as a SMILES string. A value given as a limit tells only on which side of the number the result lay.

Regarding `COc1cccc(-c2ncccn2)c1C(=O)N[C@H]1CCC[C@@H]1COc1ccc(F)cn1` [Example 32, N-[(1S,2S)-2-[(5-fluoro-2-pyridyl)oxymethyl]cyclopentyl]-2-methoxy-6-pyrimidin-2-yl-benzamide], the results for the Ki at Human OX2 receptor [1] and at Human OX1 receptor [2] were 2000 nM and 20 nM, respectively. In addition, the Kb was 50.1 nM at Human OX1 receptor [3] and above 2510 nM at Human OX2 receptor [4].

The Ki is the equilibrium dissociation constant of an inhibitor or competing ligand from its target. Higher therefore signals lower affinity.
